How the values were obtained:
[1] = tested on: E18 rat primary cortical neurons; experiment: Glutamate-induced excitotoxic cell death (LDH release and MTT reduction assays); format: cell-based
Text: Lactate dehydrogenase (LDH) release and 3-(4,5-dimethylthiazol-2-yl)-2,5-diphenyltetrazolium bromide (MTT) reduction assays were used to measure cell death. NeuroPureTM E18 primary rat cortical cells were commercially procured (Catalogue # N200200, Genlantis, San Diego, Calif., USA) as micro-surgically dissected regions from day 18 embryonic Sprague-Dawley rat brain. The tissues were processed for culturing according to manufacturer specifications. Briefly, enzymatic pre-treatment of the tissue was done prior to mechanical dissociation by incubating the tissues in sterile NeuroPapain enzyme solution at 30° C. for 30 minutes. Following incubation, the cells were centrifuged and transferred to fresh plating medium, where they were then dissociated into isolated neurons using a P-1000 pipettor with a sterile 1 ml plastic tip (0.8-1.0 mm diameter opening). The cells were again centrifuged and seeded in multi-well plates pre-coated with poly-D-lysine (0.15 ml/cm^2, 50 μg/ml) and maintained at 37° C. in a humidified 5% CO2 atmosphere. All experiments were performed after 9-10 days in culture. Twenty-four hours before glutamate exposure, cultures were pre-treated with both PROG (Cat. #P3972; Sigma Aldrich, St. Louis, Mo., USA) and VDH(Cat. #D1530; Sigma) separately or in combination with VDH at various concentrations. Stock solutions of PROG and VDH were prepared in dimethylsulfoxide (DMSO; Cat. #D2650; […] Glutamate was diluted in phosphate-buffered saline (PBS, pH 7.4). All reagents were filter sterilized before being added to cultures. At Day 11, cortical neurons in fresh media were separated into five treatment groups: (i) control; (ii) 24 hour treatment with 0.5 μM glutamate (Sribnick E A, et al., (2004) J Neurosci Res 76: 688-696); ([…]) with subsequent exposure to glutamate for 24 hours; (iv) 24 hour pre-treatment with VDH (1, 5, 10, 20, 40, 80, 100 nM) with subsequent exposure to glutamate for 24 hours; (v) 24 hour pre-treatment with different combinations of PROG and […]: 20 μM+VDH: 1, 5, 10, 20, 40, 80, 100 nM) with subsequent exposure to glutamate for 24 hours. Two widely accepted assays (LDH release and MTT reduction assay) for the measurement of cell viability were used. These assays are considered very reliable and reproducible with high predictive validity and are widely used in various pharmacological studies ([…], et al., (2002) Endocrinology 143: 205-212.). The LDH assay was performed as follows. […] LDH activity was measured using a Cytotoxicity Detection Kit (Roche Molecular Biochemicals, Indianapolis, Ind., USA) and quantitated by measuring absorbance at 490 nm. Data were normalized against the amount of LDH activity released from vehicle-treated control cultures receiving no glutamate. Neuronal death was also assessed by MTT [3-(4,5-dimethylthiazol-2-yl)-2,5-diphenyltetrazolium bromide] assay, which is based on the cleavage of the tetrazolium ring of the pale yellow MTT into dark blue formazan crystals by mitochondrial dehydrogenase enzyme in viable cells. These blue formazan crystals accumulate within the cells due to their impermeability to cell membrane, and are then solubilized by adding DMSO. The intensity of blue colored formazan solution is directly proportional to the number of surviving cells. Concentrations were determined by photometric analysis. Briefly, 10 μl of MTT were added per well and incubated at 37° C. for 4 hours until purple precipitate was visible. DMSO (50 μl) was added to solubilize the crystals and the absorbance was read at 570 nm.

MAPK (ERK1/2) = experiment: MAPK phosphorylation (p-ERK1/2 Western blot) in primary cortical neurons; format: cell-based, rat; settings: PROG 20 μM, 30-minute treatment
Procedure: PROG and VDH were added to the primary cultures, as described above, for 30 minutes ([…], et al., (2002) Endocrinology 143: 205-212) and the cells were lysed using RIPA lysis buffer kit (sc-24948, Santa Cruz, Calif., USA). Protein was determined in cell lysates by bicinchoninic acid (BCA) protein assay (Cat. # 23225, Pierce, Rockford, Ill., USA). Cell lysates (40 μg protein each sample) were separated under reducing and denaturing conditions by 12.5% acrylamide Criterion gel (BioRad, Hercules, Calif., USA) at 200V for 1 hour and transferred to a polyvinylidene difluoride (PVDF) membrane at 100V for 30 minutes. The non-specific binding sites of the membrane were blocked with 5% non-fat dry milk in PBS-T (phosphate buffered saline containing 0.05% Tween-20). […] Membranes were then incubated in horseradish peroxidase (HRP)-conjugated secondary antibody (Goat anti-rabbit IgG; 074-1506, KPL, Gaithersburg, Md., USA). β-actin was probed as a loading control. Blots were developed using a chemiluminescent substrate (Pierce) for 5 minutes.

[2] = tested on: E18 rat primary cortical neurons; experiment: Morphological analysis of cortical cultures (phase contrast); format: cell-based; settings: glutamate 0.5 μM for 24 h; data not shown
Text: Changes in the morphology of neurons treated with different drugs in various groups were observed using a phase-contrast microscope (Nikon). Primary cultures were mainly observed for neurite outgrowth, a hallmark feature of healthy cells, and the density of healthy cells in different groups.

[3] = tested on: moderate to severe TBI patients; settings: cited from earlier work

## CC(=O)[C@H]1CCC2C3CCC4=CC(=O)CC[C@]4(C)C3CC[C@@]21C (stereo partly shown) [progesterone]
[1]; LDH and MTT assays
  best (most effective) concentration alone against glutamate-induced neuronal death: 20 µM
[1]; PROG at higher concentrations (10, 20, 40, and 80 μM), LDH and MTT assays, P<0.001
  glutamate-induced cell death compared to vehicle-only group: significant reduction
[1]; PROG at lower concentrations (0.01, 0.1, 1, 5 μM), 24 h pre-treatment, glutamate 0.5 μM 24 h
  glutamate-induced cell death compared to vehicle-only group: did not show any decrease in cell death
MAPK (ERK1/2)
  increase in p-ERK1/2 level compared to control group: 2 ×
[2]
  morphology of neurons (neuronal processes, number of neurons) after glutamate: rescued neurons
[3]; 3 days of intravenous treatment, 100 patients
  reduction of mortality: over 60%
[3]; 30 days post-injury
  functional outcomes: significantly improved functional outcomes

Source: patent US20110306579A1, “METHODS OF NEUROPROTECTION USING NEUROPROTECTIVE STEROIDS AND A VITAMIN D” (EMORY UNIVERSITY, priority 2009, published 2011)
